Laboratory results: publication PMC11267363, “Supramolecular Nanofibers Ameliorate Bleomycin‐Induced Pulmonary Fibrosis by Restoring Autophagy” (Advanced Science, 2024)

Key:
human TRB3 protein = target: T1, human TRB3 protein (Homo sapiens, UniProt Q96RU7); assay: Microscale thermophoresis (MST) binding to TRB3; conditions: Monolith NT.115, recombinant human TRB3, read-out: binding constant (KD)
T1 construct: purchased Sino Biological 10731-H09B
T1 sequence (Q96RU7 1-358): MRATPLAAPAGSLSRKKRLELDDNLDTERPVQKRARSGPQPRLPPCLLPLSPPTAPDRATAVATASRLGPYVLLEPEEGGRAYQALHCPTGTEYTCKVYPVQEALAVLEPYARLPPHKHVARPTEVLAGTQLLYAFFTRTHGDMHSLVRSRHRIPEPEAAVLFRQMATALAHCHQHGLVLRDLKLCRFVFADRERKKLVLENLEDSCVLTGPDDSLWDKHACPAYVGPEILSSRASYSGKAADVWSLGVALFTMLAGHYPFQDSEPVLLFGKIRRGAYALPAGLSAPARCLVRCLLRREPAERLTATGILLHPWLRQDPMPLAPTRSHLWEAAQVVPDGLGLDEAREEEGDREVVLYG
Protocol: To determine the effects of the self‐assembly factor “Ac‐GFFY” on the secondary structure of the A2 peptide fragment, Circular dichroism (CD) and Fourier transform infrared (FTIR) measurements were performed. […] We subsequently assessed the binding affinity between Ac‐GFFY‐A2 or A2 peptides to the human TRB3 protein or bovine serum albumin (BSA) using microscale thermophoresis (MST) assay, with BSA serving as the control group. […] Therefore, we labeled the peptide with the fluorescence group 7‐nitro‐1,2,3‐benzoxadiazole (NBD) to determine the cellular uptake via flow cytometer. The NBD‐labeled peptide was incubated with both of normal and activated MRC‐5 cells for 4 h, respectively. […] Collectively, under the action of supramolecular self‐assembly, the peptide assemblies with stable secondary conformation can not only be effectively absorbed by MRC‐5 cells but also have the potential to interfere with TRB3/p62 PPIs.
HR‐MS (Varian QFT‐ESI) was used to characterize the molecular weight of compounds. TEM (JEM100CXII) was performed at the Tecnai G2 F20 system, operating at 100 kV. Circular dichroism (CD) spectrum was obtained by a BioLogic (MOS‐450) system. Dynamic light scattering was measured by a ZETAPALS/BI‐200SM (BROOKHAVEN) system. Confocal laser scanning microscopy (CLSM) was measured by Leica TCS SP‐5. Flow cytometry (BD, FACS) was used to detect the cellular uptake. […]

MRC-5 cells = assay: Cell migration, invasion and wound-healing assay; format: cell-based, human; conditions: MRC-5 cells stimulated by TGF-β1, peptide 50 µM, 24 h transwell, 48 h wound closure, n = 3
Protocol: For wound healing, cell monolayers were scratched with pipette tip. Cells were incubated with or without 10 ng ml^−1 recombinant human TGF‐β1. Ac‐GFFY‐A2 (50 µM) or A2 (50 µM) was added to the medium 1 h behind to TGF‐β1 stimulation. Images were captured at 0 and 48 h after scratching, and the lesion area was measured with Image J software. Cell invasion assay was performed using transwell chambers (8‐µm pore size, Millipore). Chambers were pre‐coated with Matrigel (30 µg per well, BD). Cells were seeded into the chamber with MEM supplemented with 0.1% FBS, and the lower well was added MEM supplemented with 20% FBS. After incubated for 24 h, non‐invaded cells on the upside were removed with cotton swap, and invaded cells were fixed with 4% paraformaldehyde, stained with 0.5% crystal violet, and then photographed under a microscope. The crystal violet stain was eluted in alcohol and quantified at OD540 nm. […]
MRC-5 cells were seeded on a 6-well plate at a density of 6×10^4 cells per well then cultured for 12 hours to adhere the walls. […] The cells were collected and centrifuged, finally the cellular uptake was measured by flow cytometry. […]
Images were captured at 0 h and 48 h after scratching, and the lesion area was measured with Image J software. […] The crystal violet stain was eluted in alcohol and quantified at OD540 nm. […]

**Q.** With Ac-GFFYGGWLTRLLQTK-OH [Ac-GFFY-A2] as the substance, how does the Kd (human TRB3 protein) read?
**A.** ~19.1 µM

**Q.** What about the “rate of migration and invasion” value (MRC-5 cells) of the same substance?
**A.** decline in the rate of migration and invasion
